From the supplement of paper PMC10307832

Key:
Assay in all cases: relative viability (nuclei count vs DMSO), 5 days (fraction); higher = more cells survive
NCI-H661 = tested on: NCI-H661
In short: (§1)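 Lung cancer cell lines in 1536-well plates got either a single drug or a fixed anchor-drug dose together with five library-drug doses (not always all listed) in √10 steps, by pin tool, on the day after seeding. Nuclei were counted after 5 days, and relative viability is the treated-to-vehicle ratio of nuclei counts. Values are medians of duplicate plates.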

PC-3 [JPC-3] = tested on: PC-3 [JPC-3]
In short: as §1

NCI-H2405 = tested on: NCI-H2405
In short: as §1

NCI-H1792 = tested on: NCI-H1792
In short: as §1

HCC-15 = tested on: HCC-15
In short: as §1

NCI-H2087 = tested on: NCI-H2087
In short: as §1

COR-L 105 = tested on: COR-L 105
In short: as §1

NCI-H2009 = tested on: NCI-H2009
In short: as §1

HARA = tested on: HARA
In short: as §1

NCI-H2170 = tested on: NCI-H2170
In short: as §1

NCI-H1651 = tested on: NCI-H1651
In short: as §1

NCI-H23 = tested on: NCI-H23
In short: as §1

LCLC-97TM1 = tested on: LCLC-97TM1
In short: as §1

201T = tested on: 201T
In short: as §1

HCC-827 = tested on: HCC-827
In short: as §1

NCI-H1395 = tested on: NCI-H1395
In short: as §1

UMC-11 = tested on: UMC-11
In short: as §1

LU99A = tested on: LU99A
In short: as §1

SK-MES-1 = tested on: SK-MES-1
In short: as §1

H3255 = tested on: H3255
In short: as §1

NCI-H650 = tested on: NCI-H650
In short: as §1

CAL-12T = tested on: CAL-12T
In short: as §1

Oc1nc(-c2ccc(C(F)(F)F)cc2)nc2c1CSCC2 [XAV939] + Nc1ncn([C@H]2C[C@H](O)[C@@H](CO)O2)c(=O)n1 [Decitabine] (partner 2 µM)
relative viability (NCI-H661; first compound 0.08 µM): 0.542
relative viability (NCI-H661; first compound 0.253 µM): 0.493
relative viability (NCI-H661; first compound 0.8 µM): 0.544
relative viability (NCI-H661; first compound 2.53 µM): 0.509
relative viability (PC-3 [JPC-3]; first compound 0.253 µM): 0.724
relative viability (PC-3 [JPC-3]; first compound 0.8 µM): 0.837
relative viability (PC-3 [JPC-3]; first compound 2.53 µM): 0.784
relative viability (NCI-H2405; first compound 0.08 µM): 0.776
relative viability (NCI-H2405; first compound 0.253 µM): 0.721
relative viability (NCI-H2405; first compound 0.8 µM): 0.709
relative viability (NCI-H2405; first compound 2.53 µM): 0.689
relative viability (NCI-H1792; first compound 0.08 µM): 0.604
relative viability (NCI-H1792; first compound 0.253 µM): 0.485
relative viability (NCI-H1792; first compound 0.8 µM): 0.503
relative viability (NCI-H1792; first compound 2.53 µM): 0.42
relative viability (HCC-15; first compound 0.08 µM): 0.702
relative viability (HCC-15; first compound 0.253 µM): 0.656
relative viability (HCC-15; first compound 0.8 µM): 0.656
relative viability (HCC-15; first compound 2.53 µM): 0.635
relative viability (NCI-H2087; first compound 0.08 µM): 0.28
relative viability (NCI-H2087; first compound 0.253 µM): 0.297
relative viability (NCI-H2087; first compound 0.8 µM): 0.302
relative viability (NCI-H2087; first compound 2.53 µM): 0.243
relative viability (COR-L 105; first compound 0.08 µM): 0.719
relative viability (COR-L 105; first compound 0.253 µM): 0.551
relative viability (COR-L 105; first compound 0.8 µM): 0.587
relative viability (COR-L 105; first compound 2.53 µM): 0.563
relative viability (NCI-H2009; first compound 0.08 µM): 0.515
relative viability (NCI-H2009; first compound 0.253 µM): 0.359
relative viability (NCI-H2009; first compound 0.8 µM): 0.405
relative viability (NCI-H2009; first compound 2.53 µM): 0.336
relative viability (HARA; first compound 0.08 µM): 0.552
relative viability (HARA; first compound 0.253 µM): 0.51
relative viability (HARA; first compound 0.8 µM): 0.626
relative viability (HARA; first compound 2.53 µM): 0.379
relative viability (NCI-H2170; first compound 0.08 µM): 0.472
relative viability (NCI-H2170; first compound 0.253 µM): 0.484
relative viability (NCI-H2170; first compound 0.8 µM): 0.455
relative viability (NCI-H2170; first compound 2.53 µM): 0.385
relative viability (NCI-H1651; first compound 0.08 µM): 0.606
relative viability (NCI-H1651; first compound 0.253 µM): 0.399
relative viability (NCI-H1651; first compound 0.8 µM): 0.625
relative viability (NCI-H1651; first compound 2.53 µM): 0.426
relative viability (NCI-H23; first compound 0.08 µM): 0.312
relative viability (NCI-H23; first compound 0.8 µM): 0.32
relative viability (NCI-H23; first compound 2.53 µM): 0.273
relative viability (LCLC-97TM1; first compound 0.08 µM): 0.211
relative viability (LCLC-97TM1; first compound 0.253 µM): 0.245
relative viability (LCLC-97TM1; first compound 2.53 µM): 0.21
relative viability (201T; first compound 0.08 µM): 0.87
relative viability (201T; first compound 0.253 µM): 0.901
relative viability (201T; first compound 0.8 µM): 0.779
relative viability (201T; first compound 2.53 µM): 0.788
relative viability (HCC-827; first compound 0.08 µM): 0.327
relative viability (HCC-827; first compound 0.253 µM): 0.269
relative viability (HCC-827; first compound 0.8 µM): 0.321
relative viability (HCC-827; first compound 2.53 µM): 0.254
relative viability (NCI-H1395; first compound 0.08 µM): 0.77
relative viability (NCI-H1395; first compound 0.253 µM): 0.683
relative viability (NCI-H1395; first compound 0.8 µM): 0.795
relative viability (NCI-H1395; first compound 2.53 µM): 0.688
relative viability (UMC-11; first compound 0.08 µM): 0.633
relative viability (UMC-11; first compound 0.253 µM): 0.616
relative viability (UMC-11; first compound 0.8 µM): 0.467
relative viability (UMC-11; first compound 2.53 µM): 0.26
relative viability (LU99A; first compound 0.08 µM): 0.986
relative viability (LU99A; first compound 0.253 µM): 0.725
relative viability (LU99A; first compound 0.8 µM): 0.807
relative viability (LU99A; first compound 2.53 µM): 0.921
relative viability (SK-MES-1; first compound 0.08 µM): 0.359
relative viability (SK-MES-1; first compound 0.253 µM): 0.342
relative viability (SK-MES-1; first compound 0.8 µM): 0.358
relative viability (SK-MES-1; first compound 2.53 µM): 0.381
relative viability (H3255; first compound 0.08 µM): 0.637
relative viability (H3255; first compound 0.253 µM): 0.56
relative viability (H3255; first compound 0.8 µM): 0.576
relative viability (H3255; first compound 2.53 µM): 0.386
relative viability (NCI-H650; first compound 0.08 µM): 0.286
relative viability (NCI-H650; first compound 0.253 µM): 0.305
relative viability (NCI-H650; first compound 0.8 µM): 0.33
relative viability (NCI-H650; first compound 2.53 µM): 0.325

Oc1nc(-c2ccc(C(F)(F)F)cc2)nc2c1CSCC2 [XAV939] + NC(=O)Nc1cc(-c2cccc(F)c2)sc1C(=O)N[C@H]1CCCNC1 [AZD7762] (partner 0.2 µM)
relative viability (PC-3 [JPC-3]; first compound 0.253 µM): 0.691
relative viability (PC-3 [JPC-3]; first compound 0.8 µM): 0.753
relative viability (PC-3 [JPC-3]; first compound 2.53 µM): 0.801
relative viability (NCI-H2405; first compound 0.08 µM): 0.701
relative viability (NCI-H2405; first compound 0.253 µM): 0.731
relative viability (NCI-H2405; first compound 0.8 µM): 0.672
relative viability (NCI-H2405; first compound 2.53 µM): 0.569
relative viability (NCI-H1792; first compound 0.08 µM): 0.823
relative viability (NCI-H1792; first compound 0.253 µM): 0.595
relative viability (NCI-H1792; first compound 0.8 µM): 0.636
relative viability (NCI-H1792; first compound 2.53 µM): 0.591
relative viability (HCC-15; first compound 0.08 µM): 1.31
relative viability (HCC-15; first compound 0.253 µM): 1.15
relative viability (HCC-15; first compound 0.8 µM): 1.21
relative viability (HCC-15; first compound 2.53 µM): 1.08
relative viability (NCI-H2087; first compound 0.08 µM): 1.29
relative viability (NCI-H2087; first compound 0.253 µM): 1.2
relative viability (NCI-H2087; first compound 0.8 µM): 1.22
relative viability (NCI-H2087; first compound 2.53 µM): 1.31
relative viability (CAL-12T; first compound 0.08 µM): 0.654
relative viability (CAL-12T; first compound 0.253 µM): 0.595
relative viability (CAL-12T; first compound 0.8 µM): 0.609
relative viability (CAL-12T; first compound 2.53 µM): 0.507
relative viability (HARA; first compound 0.08 µM): 0.671
relative viability (HARA; first compound 0.253 µM): 0.305
relative viability (HARA; first compound 0.8 µM): 0.271
relative viability (HARA; first compound 2.53 µM): 0.294
relative viability (NCI-H2170; first compound 0.08 µM): 0.867
relative viability (NCI-H2170; first compound 0.253 µM): 0.692
relative viability (NCI-H2170; first compound 0.8 µM): 0.823
relative viability (NCI-H2170; first compound 2.53 µM): 0.532
relative viability (NCI-H1651; first compound 0.08 µM): 0.518
relative viability (NCI-H1651; first compound 0.253 µM): 0.429
relative viability (NCI-H1651; first compound 0.8 µM): 0.383
relative viability (NCI-H1651; first compound 2.53 µM): 0.389
relative viability (NCI-H23; first compound 0.08 µM): 0.393
relative viability (NCI-H23; first compound 0.8 µM): 0.195
relative viability (NCI-H23; first compound 2.53 µM): 0.238
relative viability (LCLC-97TM1; first compound 0.08 µM): 0.446
relative viability (LCLC-97TM1; first compound 0.8 µM): 0.208
relative viability (LCLC-97TM1; first compound 2.53 µM): 0.172
relative viability (201T; first compound 0.08 µM): 0.781
relative viability (201T; first compound 0.253 µM): 0.497
relative viability (201T; first compound 0.8 µM): 0.724
relative viability (201T; first compound 2.53 µM): 0.64
relative viability (HCC-827; first compound 0.08 µM): 0.228
relative viability (HCC-827; first compound 0.253 µM): 0.195
relative viability (HCC-827; first compound 0.8 µM): 0.213
relative viability (HCC-827; first compound 2.53 µM): 0.177
relative viability (NCI-H1395; first compound 0.08 µM): 0.389
relative viability (NCI-H1395; first compound 0.253 µM): 0.384
relative viability (NCI-H1395; first compound 0.8 µM): 0.377
relative viability (NCI-H1395; first compound 2.53 µM): 0.366
relative viability (LU99A; first compound 0.08 µM): 0.495
relative viability (LU99A; first compound 0.253 µM): 0.394
relative viability (LU99A; first compound 0.8 µM): 0.339
relative viability (LU99A; first compound 2.53 µM): 0.32
relative viability (H3255; first compound 0.08 µM): 0.858
relative viability (H3255; first compound 0.253 µM): 0.753
relative viability (H3255; first compound 0.8 µM): 0.773
relative viability (H3255; first compound 2.53 µM): 0.669
relative viability (NCI-H650; first compound 0.08 µM): 1.04
relative viability (NCI-H650; first compound 0.253 µM): 0.809
relative viability (NCI-H650; first compound 0.8 µM): 1.02
relative viability (NCI-H650; first compound 2.53 µM): 0.773
